According to patent US20220133697A1, “INJECTABLE FORMULATIONS” (Aldeyra Therapeutics, Inc., priority 2018, published 2022):

How the values were obtained:
[1] = body weight and adverse effects during 56 days daily treatment in the abcr-/- mouse study; type: in vivo, mice; details: daily treatment for 56 days
Method: (§1) A mouse knockout model (abcr−/−) of macular degeneration (MD) was used to test the activities of Compound I-5 and Compound I-22. The retinal transport protein, ABCA4, is not expressed in these mice, allowing retinaldehdye to escape the light cycle and form a toxic metabolite with phosphatidylethanolamine, N-retinylidene-phosphatidylethanolamine (A2E). Mice were treated intraperitoneally (IP) for 56 days with 10 mg/kg Compound I-5 (n=24), Compound I-22 (n=24), or vehicle (n=22), starting at week 10 to 12 of life. An untreated control group (n=12) was sacrificed on the first day of dosing. After treatment, A2E concentrations in retinas were measured by HPLC. Statistical significance from vehicle control was determined by t-test.

[2] = dark adaptation, separate study; type: in vivo; details: systemic (IP) doses 5-fold greater than the effective dose in the A2E study, 56 days; data not shown
[3] = system: MDA adducts; assay: MDA adducts in the LPS-induced uveitis model; type: in vivo, female Lewis rats; details: after TO and IVT administration; data not shown
Method: An in vivo study was conducted to assess the efficacy of intravitreal administration of Compound I-5 and I-22 in a rat model of endotoxin induced uveitis, one of the most appropriate models for the study of non-infectious uveitis (NIU) (Smith et al., 1998, Immunol Cell Biol. 76(6):497-512) (Toxikon Study 16-04078-N1). Ocular inflammation was induced in female Lewis rats (n=10/group) by a single, foot pad injection of lipopolysaccharide (LPS) (100 μL) (Herbort et al., 1988, Graefes Arch Clin Exp Ophthalmol. 226(6):553-8). […] Anterior segments were scored using a combined Draize and McDonald-Shattuck scoring system, and posterior segments were scored using 0 to 1 (vitreous, optic disc, retinal vasculature) and 0 to 4 (retinal and choroidal hemorrhage, exudation, and detachment) scales. Statistical significance from vehicle control was determined by ANOVA, followed by Tukey's post hoc test. […] Retinal exams were performed prior to study start and six and 24 hours following LPS administration and scored using a Combined Draize and McDonald Shadduck scoring system, based on assessments of: (a) Retinal vasculopathy; (2) Retinal hemorrhage, exudate or detachment; and (3) Retinal hemorrhage, exudate or detachment.

[4] = system: endotoxin induced uveitis; assay: rat model of endotoxin induced uveitis, ocular exam scores; type: in vivo, female Lewis rats; details: for retina-choroid scores, within-subject statistical analysis (treatment and time): IVT treatment, compared to vehicle control
Method: An in vivo study was conducted to assess the efficacy of intravitreal administration of Compound I-5 and I-22 in a rat model of endotoxin induced uveitis, one of the most appropriate models for the study of non-infectious uveitis (NIU) (Smith et al., 1998, Immunol Cell Biol. 76(6):497-512) (Toxikon Study 16-04078-N1). Ocular inflammation was induced in female Lewis rats (n=10/group) by a single, foot pad injection of lipopolysaccharide (LPS) (100 μL) (Herbort et al., 1988, Graefes Arch Clin Exp Ophthalmol. 226(6):553-8). Compound I-5 or I-22 (50 μg) was topically administered (TO) to the eye at hours 1, 3, 7, 10, and 17, after LPS induction, or by a single intravitreal (IVT) injection (25 μg) 1 hour after LPS induction (n=10 per group). Ocular exams were performed six and 24 hours after LPS injection. Anterior segments were scored using a combined Draize and McDonald-Shattuck scoring system, and posterior segments were scored using 0 to 1 (vitreous, optic disc, retinal vasculature) and 0 to 4 (retinal and choroidal hemorrhage, exudation, and detachment) scales. Statistical significance from vehicle control was determined by ANOVA, followed by Tukey's post hoc test. The test compound, e.g., Compound I-22 (5 mg/mL), was administered intravitreally into each eye (25 μg/eye) within one hour of LPS administration. Balanced salt solution (BSS) served as a vehicle control. Retinal exams were performed prior to study start and six and 24 hours following LPS administration and scored using a Combined Draize and McDonald Shadduck scoring system, based on assessments of: (a) Retinal vasculopathy; (2) Retinal hemorrhage, exudate or detachment; and (3) Retinal hemorrhage, exudate or detachment.

[5] = system: A2E; assay: A2E formation in retinas of abcr-/- mouse knockout model of macular degeneration; type: in vivo, mice; details: 10 mg/kg intraperitoneally daily for 56 days, HPLC, compared with vehicle controls
Method: as §1

[6] = system: diabetic macular edema; assay: rat model of diabetic macular edema (STZ-induced diabetes), retinal histology scores; type: in vivo
Method: To assess the effect of Compound I-22 in a rat model of diabetic macular edema (DME), Type 1 diabetes was induced in male brown Norway rats by intraperitoneal administration of streptozotocin (STZ; 55 mg/kg). Forty days after STZ administration, animals were tested for diabetes by testing blood glucose levels.
Animals with diabetes were assigned to groups of ten, to receive either vehicle (HPβCD) or Compound I-22. […] On Day 41 (about Week 6) after STZ induction, animals received a single intravitreal injection of Compound I-22 (3.5 μL; 17.5 μg) or vehicle per eye. On Day 57 (about Week 8) after STZ induction, animals received a second intravitreal injection of Compound I-22 or vehicle.
On Day 70 (about Week 10) after STZ induction, animals were euthanized and retinas were processed for histological examination. Sections (3 to 5 μm) were stained with hematoxylin and eosin and evaluated by light microscopy. Changes in retinal thickness were scored on a 0 to 4 scale, with 0 meaning no changes, 1 meaning minimal changes, 2 meaning mild changes, 3 meaning moderate changes, and 4 meaning severe changes, relative to non-diabetic controls. Six microscopic sections were examined for each eye, and retinas were also assessed and scored by a pathologist for changes in vascularity and neutrophil infiltration.

[7] = single intravitreal (IVT) injection 25 μg 1 hour after LPS, vs. vehicle
[8] = topical (TO) 50 μg at hours 1, 3, 7, 10, 17 after LPS, at 6 hours and 24 hours, compared to vehicle

Row | Structure (SMILES) | drug-related adverse effects [1] | effect on body weight [1] | effect on dark adaptation [2] | MDA adducts [3] | retina-choroid scores, within-subject statistical analysis (treatment and time) [4] | ocular exam scores (total ocular, anterior chamber and retina-choroid inflammation) [4, 7] | ocular exam scores (total ocular, anterior chamber and retina-choroid inflammation) [4, 8] | decrease in formation of A2E [5] | reduction in retinal vascularity compared to vehicle, statistical significance ([6]; intravitreal 17.5 μg per eye on Day 41 and Day 57 after STZ, FIG. 10) | neutrophil infiltration (score 0 to 4) ([6]; intravitreal 17.5 μg per eye on Day 41 and Day 57 after STZ, compared to vehicle, p<0.01) | decrease in retinal vascularity score ([6]; intravitreal 17.5 μg per eye on Day 41 and Day 57 after STZ, compared to vehicle, p<0.05) | retinal thickness (score 0 to 4) ([6]; intravitreal 17.5 μg per eye on Day 41 and Day 57 after STZ, histology Day 70, p<0.01) | tolerability in the retina ([6]; intravitreal injection, rat DME model) | retinal inflammation ([6]; measured by retinal thickness, neutrophil infiltration and retinal vascular changes)
1 | CC(C)(O)c1nc2ccc(Cl)cc2cc1N [Compound I-5] | nor were any drug-related adverse effects observed | no effect | no effect | Small, although not significant, reductions | significantly improved | significantly improved | significantly improved | 71% |  |  |  |  |  | 
2 | CC(C)(O)c1cc2oc(-c3ccccc3)nc2cc1N [Compound I-22] | nor were any drug-related adverse effects observed | no effect |  | Small, although not significant, reductions | significantly improved | significantly improved | significantly improved | 69% | not statistically significant | significant reduction | 36% | significant reduction | well tolerated | decreased
